According to patent US10000483B2, “Bone marrow on X chromosome kinase (BMX) inhibitors and uses thereof” (Dana-Farber Cancer Institute, Inc., priority 2012, dated 2018):
“And” between values parts separate entries of the source, which are not always exact repeats. Identical values can stand only once.

Columns and labels:
PIK3CA(I800L) = PIK3CA(I800L) (Homo sapiens (Human), UniProt P42336, I800L); assay: Kinase panel at 1 uM (Table 9); format: binding; settings: read-out: % inhibition at 1 uM, PIK3CA(I800L)
Text: (§2) Screening hits are identified by measuring the amount of protein captured in test versus control samples by using a quantitative, precise, and ultra-sensitive qPCR method that detects the associated DNA label.

OCI-Ly19 cells = assay: Cell proliferation analysis for WM and lymphoma cell lines (CellTiter-Glo); format: cell-based; settings: Homo sapiens, 72 hours
Procedure: (§3) Various cell lines were used including Waldenström's macroglobulinemia (WM) cell lines (BCWM.1, MWCL-1, RPCI-WM1) and B-cell lymphoma cell lines (OCI-Ly3, Ramos, OCI-Ly19). Cells were seeded into 384 well plates with the EL406 Combination Washer Dispenser (BioTek Instruments, Inc.) and inhibitor compounds were injected into the cells culture media with the JANUS Automated Workstation (PerkinElmer Inc.).

BCWM.1 cells = assay: as above; format: cell-based; settings: BCWM1; 72 hours
Procedure: as §3

CLK2 [1] = biological target: T1, CLK2 (Homo sapiens (Human), UniProt P49760); assay: DiscoverX binding assay
T1 sequence (P49760 whole entry): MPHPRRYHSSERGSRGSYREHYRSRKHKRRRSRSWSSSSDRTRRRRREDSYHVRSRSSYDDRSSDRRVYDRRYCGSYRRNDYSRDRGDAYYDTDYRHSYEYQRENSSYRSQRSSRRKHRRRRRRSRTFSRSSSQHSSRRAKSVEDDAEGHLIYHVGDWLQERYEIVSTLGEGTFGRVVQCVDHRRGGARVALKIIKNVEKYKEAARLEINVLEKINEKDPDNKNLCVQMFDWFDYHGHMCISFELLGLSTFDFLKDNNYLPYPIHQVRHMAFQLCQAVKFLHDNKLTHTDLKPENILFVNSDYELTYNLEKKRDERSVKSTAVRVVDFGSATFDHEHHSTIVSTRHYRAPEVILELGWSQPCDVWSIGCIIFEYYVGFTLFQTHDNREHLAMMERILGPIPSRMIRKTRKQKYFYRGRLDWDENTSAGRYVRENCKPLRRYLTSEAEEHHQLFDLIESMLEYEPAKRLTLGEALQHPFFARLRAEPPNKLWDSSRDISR
Text: as §2

ITK = ITK (Homo sapiens (Human), UniProt Q08881); assay: DiscoverX binding assay
Text: as §2

EGFR(T790M) [2] = biological target: T2, EGFR(T790M) (Homo sapiens (Human), UniProt P00533, T790M); assay: DiscoverX binding assay
Text: as §2

FLT3(ITD) = assay: Kinase panel at 1 uM (Table 9); format: binding
Text: as §2

JNK1 = JNK1 (Homo sapiens (Human), UniProt P45983); assay: Kinase panel at 1 uM (Table 9); format: binding; settings: read-out: % inhibition at 1 uM, JNK1
Text: as §2

JAK3 [3] = biological target: T3, JAK3 (Homo sapiens (Human), UniProt P52333); assay: Invitrogen Select Screening in vitro kinase assay; format: biochemical
T3 sequence (P52333 whole entry): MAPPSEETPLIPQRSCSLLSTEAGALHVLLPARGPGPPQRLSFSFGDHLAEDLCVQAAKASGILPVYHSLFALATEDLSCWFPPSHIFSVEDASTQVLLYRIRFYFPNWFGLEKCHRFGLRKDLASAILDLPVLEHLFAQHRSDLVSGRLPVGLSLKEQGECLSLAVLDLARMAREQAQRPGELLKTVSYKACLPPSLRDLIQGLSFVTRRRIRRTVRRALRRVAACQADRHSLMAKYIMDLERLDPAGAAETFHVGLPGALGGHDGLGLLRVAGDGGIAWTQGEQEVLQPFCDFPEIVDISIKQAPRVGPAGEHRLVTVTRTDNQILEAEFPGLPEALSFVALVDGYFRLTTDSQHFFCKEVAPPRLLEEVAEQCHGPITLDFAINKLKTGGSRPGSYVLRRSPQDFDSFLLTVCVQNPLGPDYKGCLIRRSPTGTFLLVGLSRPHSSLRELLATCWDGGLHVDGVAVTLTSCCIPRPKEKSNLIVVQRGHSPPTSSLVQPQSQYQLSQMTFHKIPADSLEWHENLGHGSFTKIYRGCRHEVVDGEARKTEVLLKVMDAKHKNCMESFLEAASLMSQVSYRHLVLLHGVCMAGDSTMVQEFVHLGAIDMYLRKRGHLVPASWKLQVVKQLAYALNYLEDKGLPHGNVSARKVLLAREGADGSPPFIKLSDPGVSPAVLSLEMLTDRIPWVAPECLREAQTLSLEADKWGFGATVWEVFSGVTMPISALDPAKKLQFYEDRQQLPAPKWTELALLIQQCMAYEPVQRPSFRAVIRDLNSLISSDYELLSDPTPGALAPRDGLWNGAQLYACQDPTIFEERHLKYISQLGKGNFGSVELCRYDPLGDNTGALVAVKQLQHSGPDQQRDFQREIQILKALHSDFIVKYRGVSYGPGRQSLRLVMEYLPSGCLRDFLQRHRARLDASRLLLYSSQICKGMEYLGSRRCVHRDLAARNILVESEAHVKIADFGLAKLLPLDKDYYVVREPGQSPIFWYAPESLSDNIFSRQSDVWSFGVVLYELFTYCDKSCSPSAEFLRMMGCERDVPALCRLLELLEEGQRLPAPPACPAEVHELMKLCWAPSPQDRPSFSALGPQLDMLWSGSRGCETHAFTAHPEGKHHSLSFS

TAK1 = TAK1 (Homo sapiens (Human), UniProt O43318); assay: Kinase panel at 1 uM (Table 9); format: binding; settings: read-out: % inhibition at 1 uM, TAK1
Text: as §2

mTOR [4] = biological target: T4, mTOR (Homo sapiens (Human), UniProt P42345); assay: DiscoverX binding assay; settings: DiscoverX binding
Text: as §2

BMX [5] = biological target: T5, BMX (Homo sapiens (Human), UniProt P51813); assay: Invitrogen Select Screening in vitro kinase assay; format: biochemical
T5 sequence (P51813 whole entry): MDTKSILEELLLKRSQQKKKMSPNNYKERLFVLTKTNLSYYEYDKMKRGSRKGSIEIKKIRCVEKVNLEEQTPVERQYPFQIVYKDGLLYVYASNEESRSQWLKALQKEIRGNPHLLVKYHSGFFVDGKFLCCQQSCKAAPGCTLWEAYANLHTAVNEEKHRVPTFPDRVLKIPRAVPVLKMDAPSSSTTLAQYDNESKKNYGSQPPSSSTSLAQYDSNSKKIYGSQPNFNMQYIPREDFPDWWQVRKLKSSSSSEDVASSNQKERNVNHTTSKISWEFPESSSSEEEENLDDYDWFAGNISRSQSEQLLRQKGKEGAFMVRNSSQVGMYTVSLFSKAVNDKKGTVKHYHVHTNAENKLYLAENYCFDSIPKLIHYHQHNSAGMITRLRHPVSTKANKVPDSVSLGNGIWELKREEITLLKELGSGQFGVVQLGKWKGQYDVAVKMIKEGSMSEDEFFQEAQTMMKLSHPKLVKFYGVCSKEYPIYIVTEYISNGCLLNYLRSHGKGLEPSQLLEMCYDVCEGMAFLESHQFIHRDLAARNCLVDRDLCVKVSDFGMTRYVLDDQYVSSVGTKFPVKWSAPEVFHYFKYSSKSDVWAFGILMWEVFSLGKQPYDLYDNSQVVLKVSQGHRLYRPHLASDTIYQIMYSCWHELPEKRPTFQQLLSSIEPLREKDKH

MKNK2 = MKNK2 (Homo sapiens (Human), UniProt Q9HBH9); assay: Kinase panel at 1 uM (Table 9); format: binding; settings: read-out: % inhibition at 1 uM, MKNK2
Text: as §2

PIK4CB = PIK4CB (Homo sapiens (Human), UniProt Q9UBF8); assay: Kinase panel at 1 uM (Table 9); format: binding; settings: read-out: % inhibition at 1 uM, PIK4CB
PIK4CB, sequence (Q9UBF8 whole entry): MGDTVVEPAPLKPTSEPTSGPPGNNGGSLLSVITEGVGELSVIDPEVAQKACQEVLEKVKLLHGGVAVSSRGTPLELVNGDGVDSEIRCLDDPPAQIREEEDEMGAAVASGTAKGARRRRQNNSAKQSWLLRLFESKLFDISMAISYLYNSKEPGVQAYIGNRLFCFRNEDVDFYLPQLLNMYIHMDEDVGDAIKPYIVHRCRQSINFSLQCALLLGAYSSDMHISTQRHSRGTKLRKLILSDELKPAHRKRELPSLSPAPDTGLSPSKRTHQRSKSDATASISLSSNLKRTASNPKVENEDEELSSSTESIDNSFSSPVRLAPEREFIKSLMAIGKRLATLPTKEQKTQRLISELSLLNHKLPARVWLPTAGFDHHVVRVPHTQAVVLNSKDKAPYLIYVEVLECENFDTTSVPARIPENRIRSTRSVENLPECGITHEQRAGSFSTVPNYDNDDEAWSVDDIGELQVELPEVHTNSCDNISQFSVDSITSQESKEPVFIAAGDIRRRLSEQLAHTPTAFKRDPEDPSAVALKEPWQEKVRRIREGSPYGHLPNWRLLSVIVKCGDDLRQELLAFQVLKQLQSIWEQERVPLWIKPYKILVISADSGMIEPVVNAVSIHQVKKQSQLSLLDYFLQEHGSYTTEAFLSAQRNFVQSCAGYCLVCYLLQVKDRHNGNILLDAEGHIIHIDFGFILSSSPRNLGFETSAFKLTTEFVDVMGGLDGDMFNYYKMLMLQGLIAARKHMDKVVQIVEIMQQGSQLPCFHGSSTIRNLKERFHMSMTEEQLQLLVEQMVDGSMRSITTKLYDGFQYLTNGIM
Text: as §2

BMX [6] = biological target: T5, BMX; assay: DiscoverX binding assay
Text: as §2

IRAK3 = IRAK3 (Homo sapiens (Human), UniProt Q9Y616); assay: Kinase panel at 1 uM (Table 9); format: binding; settings: read-out: % inhibition at 1 uM, IRAK3
Text: as §2

BLK [7] = biological target: T6, BLK (Homo sapiens (Human), UniProt P51451); assay: DiscoverX binding assay
T6 sequence (P51451 whole entry): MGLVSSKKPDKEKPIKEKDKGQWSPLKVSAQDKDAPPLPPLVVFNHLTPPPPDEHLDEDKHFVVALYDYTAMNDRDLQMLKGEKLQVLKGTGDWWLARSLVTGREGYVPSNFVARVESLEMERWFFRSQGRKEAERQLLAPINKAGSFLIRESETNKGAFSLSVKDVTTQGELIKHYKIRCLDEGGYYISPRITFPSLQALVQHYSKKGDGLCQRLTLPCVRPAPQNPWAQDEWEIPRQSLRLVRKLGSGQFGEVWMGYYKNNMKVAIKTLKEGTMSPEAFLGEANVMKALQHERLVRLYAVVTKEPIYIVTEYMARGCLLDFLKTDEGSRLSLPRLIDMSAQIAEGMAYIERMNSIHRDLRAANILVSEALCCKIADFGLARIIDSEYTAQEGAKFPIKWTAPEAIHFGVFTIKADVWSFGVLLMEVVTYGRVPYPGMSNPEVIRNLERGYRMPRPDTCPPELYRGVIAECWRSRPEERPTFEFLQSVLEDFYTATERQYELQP
Text: as §2

DYRK2 = DYRK2 (Homo sapiens (Human), UniProt Q92630); assay: Kinase panel at 1 uM (Table 9); format: binding; settings: read-out: % inhibition at 1 uM, DYRK2
Text: as §2

PIP5K2C = PIP5K2C (Homo sapiens (Human), UniProt Q8TBX8); assay: Kinase panel at 1 uM (Table 9); format: binding; settings: read-out: % inhibition at 1 uM, PIP5K2C
Text: as §2

YSK4 = YSK4 (Homo sapiens (Human), UniProt Q56UN5); assay: Kinase panel at 1 uM (Table 9); format: binding; settings: read-out: % inhibition at 1 uM, YSK4
Text: as §2

PIK3CG = PIK3CG (Homo sapiens (Human), UniProt P48736); assay: Kinase panel at 1 uM (Table 9); format: binding; settings: read-out: % inhibition at 1 uM, PIK3CG
Text: as §2

CLK1 [8] = biological target: T7, CLK1 (Homo sapiens (Human), UniProt P49759); assay: DiscoverX binding assay
T7 sequence (P49759 whole entry): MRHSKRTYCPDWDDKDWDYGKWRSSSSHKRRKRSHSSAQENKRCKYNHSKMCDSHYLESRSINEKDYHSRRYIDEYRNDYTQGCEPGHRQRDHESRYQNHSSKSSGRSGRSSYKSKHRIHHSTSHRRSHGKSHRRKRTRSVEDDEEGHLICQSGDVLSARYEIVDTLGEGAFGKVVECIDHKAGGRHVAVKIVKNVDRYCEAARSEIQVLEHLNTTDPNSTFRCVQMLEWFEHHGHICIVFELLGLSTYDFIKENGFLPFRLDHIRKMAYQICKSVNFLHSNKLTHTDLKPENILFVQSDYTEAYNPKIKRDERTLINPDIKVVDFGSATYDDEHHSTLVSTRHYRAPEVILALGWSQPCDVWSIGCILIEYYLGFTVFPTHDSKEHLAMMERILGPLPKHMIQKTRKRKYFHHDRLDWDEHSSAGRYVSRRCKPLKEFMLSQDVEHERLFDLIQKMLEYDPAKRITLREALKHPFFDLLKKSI
Text: as §2

EGFR(T790M) [9] = biological target: T2, EGFR(T790M); assay: Invitrogen Select Screening in vitro kinase assay; format: biochemical
JNK3 = JNK3 (Homo sapiens (Human), UniProt P53779); assay: Kinase panel at 1 uM (Table 9); format: binding; settings: read-out: % inhibition at 1 uM, JNK3
Text: as §2

CLK2 [10] = biological target: T1, CLK2; assay: Invitrogen Select Screening in vitro kinase assay; format: biochemical; settings: second value of CLK1/2 cell
MEK5 = MEK5 (Homo sapiens (Human), UniProt Q13163); assay: Kinase panel at 1 uM (Table 9); format: binding; settings: read-out: % inhibition at 1 uM, MEK5
Text: as §2

Ramos cells = assay: Cell proliferation analysis for WM and lymphoma cell lines (CellTiter-Glo); format: cell-based; settings: Homo sapiens, 72 hours
Procedure: as §3

mTOR [11] = biological target: T4, mTOR; assay: Invitrogen Select Screening in vitro kinase assay; format: biochemical
Text: (§1) The in vitro activity of compounds of Formula (I) and (II) in inhibiting BMX and other kinases were obtained using an Invitrogen Select Screening assay as known in the art. The IC50 values determined from this assay are shown below.

BLK [12] = biological target: T6, BLK; assay: Invitrogen Select Screening in vitro kinase assay; format: biochemical
Text: as §1

CLK1 [13] = biological target: T7, CLK1; assay: Invitrogen Select Screening in vitro kinase assay; format: biochemical; settings: first value of CLK1/2 cell
DYRK1B = DYRK1B (Homo sapiens (Human), UniProt Q9Y463); assay: Kinase panel at 1 uM (Table 9); format: binding; settings: read-out: % inhibition at 1 uM, DYRK1B
Text: as §2

BTK [14] = biological target: T8, BTK (Homo sapiens (Human), UniProt Q06187); assay: Invitrogen Select Screening in vitro kinase assay; format: biochemical
T8 sequence (Q06187 whole entry): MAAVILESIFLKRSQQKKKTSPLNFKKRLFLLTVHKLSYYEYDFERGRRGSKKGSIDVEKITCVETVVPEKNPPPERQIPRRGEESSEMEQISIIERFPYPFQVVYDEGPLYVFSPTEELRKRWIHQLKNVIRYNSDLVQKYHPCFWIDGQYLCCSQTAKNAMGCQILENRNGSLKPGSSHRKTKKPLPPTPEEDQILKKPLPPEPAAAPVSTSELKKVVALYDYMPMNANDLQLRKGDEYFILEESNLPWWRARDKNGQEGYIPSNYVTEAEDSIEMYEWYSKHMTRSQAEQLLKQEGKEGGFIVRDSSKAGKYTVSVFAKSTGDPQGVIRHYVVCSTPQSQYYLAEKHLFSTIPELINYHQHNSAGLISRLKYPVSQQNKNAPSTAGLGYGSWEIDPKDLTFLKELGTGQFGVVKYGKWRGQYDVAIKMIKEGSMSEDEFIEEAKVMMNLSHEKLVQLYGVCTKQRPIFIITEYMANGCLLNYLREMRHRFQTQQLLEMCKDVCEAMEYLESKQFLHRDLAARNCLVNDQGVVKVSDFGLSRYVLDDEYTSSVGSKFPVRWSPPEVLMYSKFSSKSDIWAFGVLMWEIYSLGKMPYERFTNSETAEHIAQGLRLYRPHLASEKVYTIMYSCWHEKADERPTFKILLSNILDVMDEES

MWCL-1 cells = assay: Cell proliferation analysis for WM and lymphoma cell lines (CellTiter-Glo); format: cell-based; settings: 72 hours
Procedure: as §3

JAK3 [15] = biological target: T3, JAK3; assay: DiscoverX binding assay
Text: as §2

BTK [16] = biological target: T8, BTK; assay: DiscoverX binding assay
Text: as §2

TEC = TEC (Homo sapiens (Human), UniProt P42680); assay: DiscoverX binding assay
Text: as §2

DYRK1A = DYRK1A (Homo sapiens (Human), UniProt Q13627); assay: Kinase panel at 1 uM (Table 9); format: binding; settings: read-out: % inhibition at 1 uM, DYRK1A
Text: as §2

OCI-Ly3 cells = assay: Cell proliferation analysis for WM and lymphoma cell lines (CellTiter-Glo); format: cell-based; settings: Homo sapiens, 72 hours
Procedure: as §3

CSNK2A2 = CSNK2A2 (Homo sapiens (Human), UniProt P19784); assay: Kinase panel at 1 uM (Table 9); format: binding; settings: read-out: % inhibition at 1 uM, CSNK2A2
Text: as §2

SMILES: C=CC(=O)Nc1cc(-n2c(=O)ccc3cnc4ccc(-c5cn[nH]c5)cc4c32)ccc1C [II-6]
- inhibition at 1 µM (PIK3CA(I800L)): 0.45%
- EC50 (OCI-Ly19 cells): 40 nM
- EC50 (BCWM.1 cells): 50 nM
- Percent Control, CLK1/2 (CLK2) (CLK2 [1]; DiscoverX binding, second value of cell): 1.0%
- inhibition at 1 µM (CLK2 [1]; read-out: % inhibition at 1 uM, CLK2): 1.6%
- Percent Control, ITK (ITK): 29%
- Percent Control, EGFR(T790M) (EGFR(T790M) [2]; DiscoverX binding): 1.8%
- inhibition at 1 µM (EGFR(T790M) [2]; read-out: % inhibition at 1 uM, EGFR(T790M)): 1.4%
- % inhibition at 1 uM, FLT3(ITD) (FLT3(ITD)): 2.4%
- inhibition at 1 µM (JNK1): 1.9%
- IC50 (JAK3 [3]): 38.1 nM and 38 nM
- inhibition at 1 µM (TAK1): 0.35%
- Percent Control, mTOR (mTOR [4]): 0%
- IC50 (BMX [5]): 7.36 nM and 7 nM
- inhibition at 1 µM (MKNK2): 0.15%
- inhibition at 1 µM (PIK4CB): 2.3%
- Percent Control, BMX (BMX [6]): 4.6%
- inhibition at 1 µM (IRAK3): 0.7%
- Percent Control, BLK (BLK [7]; DiscoverX binding): 2.4%
- inhibition at 1 µM (BLK [7]; read-out: % inhibition at 1 uM, BLK): 2.4%
- inhibition at 1 µM (DYRK2): 0.6%
- inhibition at 1 µM (PIP5K2C): 2.7%
- inhibition at 1 µM (YSK4): 1.2%
- inhibition at 1 µM (PIK3CG): 4.2%
- Percent Control, CLK1/2 (CLK1) (CLK1 [8]; DiscoverX binding, first value of cell): 0.4%
- inhibition at 1 µM (CLK1 [8]; read-out: % inhibition at 1 uM, CLK1): 0.4%
- IC50 (EGFR(T790M) [9]): 98.8 nM
- inhibition at 1 µM (JNK3): 1.8%
- IC50 (CLK2 [10]): 50 nM
- inhibition at 1 µM (MEK5): 0.3%
- EC50 (Ramos cells): 40 nM
- IC50 (mTOR [11]): 21.9 nM and 22 nM
- IC50 (BLK [12]): 30.2 nM and 30 nM
- IC50 (CLK1 [13]): 384 nM
- inhibition at 1 µM (DYRK1B): 1.8%
- IC50 (BTK [14]): 5.34 nM and 5 nM
- EC50 (MWCL-1 cells): 180 nM
- Percent Control, JAK3 (JAK3 [15]; DiscoverX binding): 0%
- inhibition at 1 µM (JAK3 [15]; read-out: % inhibition at 1 uM, JAK3(JH1domain-catalytic)): 0%
- Percent Control, BTK (BTK [16]; DiscoverX binding): 0.2%
- percent of control (remaining binding) at 1 µM (BTK [16]; read-out: % inhibition at 1 uM, BTK): 0.2%
- Percent Control, TEC (TEC): 6%
- inhibition at 1 µM (DYRK1A): 0.1%
- EC50 (OCI-Ly3 cells): 80 nM
- inhibition at 1 µM (CSNK2A2): 1.2%
